Assay results: patent US20160376286A1, “Pyrimidin-4-one derivatives and their use in the tratement, amelioration or prevention of a viral disease” (priority 2011, published 2016)

Columns and labels:
[1] = system: influenza A virus A/Aichi/2/68 (H3N2); test: Cytopathic effect (CPE) assay H3N2 in MDCK cells; format: cell-based, influenza A virus (A/Aichi/2/68 (H3N2)); MDCK cells
Experimental: A possible measure of the […] antiviral activity of the compounds having the formula I or II is the CPE assay disclosed herein. […] In this connection, the reduction in the virus-mediated cytopathic effect (CPE) upon treatment with the compounds was calculated as follows: The cell viability of infected-treated and uninfected-treated cells was determined using an ATP-based cell viability assay (Promega). The response in relative luminescent units (RLU) of infected-untreated samples was subtracted from the response (RLU) of the infected-treated samples and then normalized to the viability of the corresponding uninfected sample resulting in % CPE reduction.
The influenza A virus (IAV) was obtained from American Tissue Culture Collection (A/Aichi/2/68 (H3N2); VR-547). Virus stocks were prepared by propagation of virus on Mardin-Darby canine kidney (MDCK; ATCC CCL-34) cells and infectious titres of virus stocks were determined by the 50% tissue culture infective dose (TCID50) analysis as described in Reed, L. J., and H. Muench. 1938, Am. J. Hyg. 27:493-497.
MDCK cells were seeded in 96-well plates at 2×10^4 cells/well using DMEM/Ham's F-12 (1:1) medium containing 10% foetal bovine serum (FBS), 2 mM L-glutamine and 1% antibiotics (all from PAA). Until infection the cells were incubated for 5 hrs at 37° C., 5.0% CO2 to form a -80% confluent monolayer on the bottom of the well. Each test compound was dissolved in DMSO and generally tested at 25 μM and 250 μM. In those cases where the compounds were not soluble at that concentration they were tested at the highest soluble concentration. The compounds were diluted in infection medium (DMEM/Ham's F-12 (1:1) containing 5 μg/ml trypsin, and 1% antibiotics) for a final plate well DMSO concentration of 1%. The virus stock was diluted in infection medium (DMEM/Ham's F-12 (1:1) containing 5 μg/m1Trypsin, 1% DMSO, and 1% antibiotics) to a theoretical multiplicity of infection (M01) of 0.05.
After removal of the culture medium and one washing step with PBS, virus and compound were added together to the cells. In the wells used for cytotoxicity determination (i.e. in the absence of viral infection), no virus suspension was added. Instead, infection medium was added. Each treatment was conducted in two replicates. After incubation at 37° C., 5% CO2 for 48 hrs, each well was observed microscopically for apparent cytotoxicity, precipitate formation, or other notable abnormalities. Then, cell viability was determined using
CellTiter-Glo luminescent cell viability assay (Promega). The supernatant was removed carefully and 65 μl of the reconstituted reagent were added to each well and incubated with gentle shaking for 15 min at room temperature. Then, 60 μl of the solution was transferred to an opaque plate and luminescence (RLU) was measured using Synergy HT plate reader (Biotek).
Relative cell viability values of uninfected-treated versus uninfected-untreated cells were used to evaluate cytotoxicity of the compounds. Substances with a relative viability below 80% at the tested concentration were regarded as cytotoxic and retested at lower concentrations.
Reduction in the virus-mediated cytopathic effect (CPE) upon treatment with the compounds was calculated as follows: The response (RLU) of infected-untreated samples was subtracted from the response (RLU) of the infected-treated samples and then normalized to the viability of the corresponding uninfected sample resulting in % CPE reduction.

[2] = target: PB2 cap binding domain (CBD) of an avian H5N1 influenza virus (Influenza A virus, UniProt Q9Q0V1); test: biochemical
Sequence of PB2 cap binding domain (CBD) of an avian H5N1 influenza virus (Q9Q0V1 318-483 limits assumed): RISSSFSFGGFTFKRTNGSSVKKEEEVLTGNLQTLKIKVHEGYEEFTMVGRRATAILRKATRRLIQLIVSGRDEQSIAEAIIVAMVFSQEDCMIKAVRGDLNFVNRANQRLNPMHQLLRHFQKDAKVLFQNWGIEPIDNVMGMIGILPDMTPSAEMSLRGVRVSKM

O=C(NO)c1cc(NS(=O)(=O)Cc2ccccc2)ccn1
melting point: 187 to 192 °C

Cc1c(-c2cnn(C)c2)sc2nc(N)[nH]c(=O)c12
melting point: 335 to 345 °C

N/C(=N\O)c1ccc(C(=O)NO)nc1
CPE H3N2 reduction (%) ([1]; activity conc 50 (μM)): −4.8%

CON(C)C(=O)c1ccc2ccccc2n1
CPE H3N2 reduction (%) ([1]; activity conc 50 (μM)): −1.2%

O=C(NOC(=O)c1cc(N2CCCCC2)ccn1)c1cc(N2CCCCC2)ccn1
CPE H3N2 reduction (%) ([1]; activity conc 50 (μM)): 29%

CCONC(=O)c1cc(NCC2CCN(Cc3ccccc3)CC2)ccn1.Cl.Cl
CPE H3N2 reduction (%) ([1]; activity conc 50 (μM)): 14.8%

Cc1cccc(C(=O)NOCc2ccccc2)n1
CPE H3N2 reduction (%) ([1]; activity conc 50 (μM)): −2.7%

CCONC(=O)c1cccc(C)n1
CPE H3N2 reduction (%) ([1]; activity conc 50 (μM)): −2.1%

COc1ccc2nc(C(=O)NOCc3ccccc3)ccc2c1
CPE H3N2 reduction (%) ([1]; activity conc 50 (μM)): −1.9%

Cc1cccc(C(=O)N(C)OCc2ccccc2)n1
CPE H3N2 reduction (%) ([1]; activity conc 50 (μM)): −2.3%

CCON(C)C(=O)c1cccc(C)n1
CPE H3N2 reduction (%) ([1]; activity conc 50 (μM)): −1.9%

CN(OCc1ccccc1)C(=O)c1ccc(-c2ccccc2)cn1
CPE H3N2 reduction (%) ([1]; activity conc 50 (μM)): −2.6%

O=C(c1cc2ccccc2cn1)N(O)Cc1ccccc1
CPE H3N2 reduction (%) ([1]; activity conc 50 (μM)): 34.2%

O=C(NO)c1cc2ccccc2cn1
CPE H3N2 reduction (%) ([1]; activity conc 50 (μM)): 94.3%

O=C(NO)c1ccc(N2CCCC2)cn1
CPE H3N2 reduction (%) ([1]; activity conc 50 (μM)): −4.3%

O=C(c1cc(C2CCCNC2)ccn1)N(O)Cc1ccccc1 (stereo not drawn)
CPE H3N2 reduction (%) ([1]; activity conc 50 (μM)): 6.1%

Cl.O=C(c1cc(N2CCC(F)CC2)ccn1)N(O)Cc1ccccc1
CPE H3N2 reduction (%) ([1]; activity conc 50 (μM)): 34%

Cl.O=C(c1cc(NS(=O)(=O)Cc2cccc(Cl)c2)ccn1)N(O)Cc1ccccc1
CPE H3N2 reduction (%) ([1]; activity conc 50 (μM)): 9.5%

Cl.O=C(c1cc(NS(=O)(=O)Cc2cccc(C(F)(F)F)c2)ccn1)N(O)Cc1ccccc1
CPE H3N2 reduction (%) ([1]; activity conc 50 (μM)): 22.4%

O=C(NO)c1ccccn1
CPE H3N2 reduction (%) ([1]; activity conc 50 (μM)): 3.15%

Nc1ccccc1NC(=O)c1ccc(C(=O)NO)nc1
CPE H3N2 reduction (%) ([1]; activity conc 50 (μM)): −5.53%

O=C(c1cc(C2=CC3CCC(C2)N3)ccn1)N(O)Cc1ccccc1 (stereo not drawn)
CPE H3N2 reduction (%) ([1]; activity conc 50 (μM)): 5.49%

Cl.O=C(NO)c1cc(NS(=O)(=O)Cc2ccc(Cl)c(Cl)c2)ccn1
CPE H3N2 reduction (%) ([1]; activity conc 50 (μM)): 53.43%

Cl.O=C(NO)c1cc(NS(=O)(=O)Cc2cccc3cccnc23)ccn1
CPE H3N2 reduction (%) ([1]; activity conc 50 (μM)): 24.39%

CCONC(=O)c1ccc(-c2cccc(CN(C)CCCc3ccccc3)c2)cn1.Cl (hydrate or solvate)
melting point: 50 to 55 °C

Cc1c(-c2ccccc2)sc2nc(N)[nH]c(=O)c12 [SAV-7475]
CPE H3N2 reduction (%) ([1]; activity conc 5): 8.9%

Nc1nc2sc(Cc3ccccc3)cc2c(=O)[nH]1 [SAV-7517]
CPE H3N2 reduction (%) ([1]; activity conc 10): 39.3 13 −2.64%

Cc1c(Cc2ccccc2)sc2nc(N)[nH]c(=O)c12 [SAV-7521]
CPE H3N2 reduction (%) ([1]; activity conc 25): 64.7 6 33.6%

Nc1nc2sc(-c3ccccc3)cc2c(=O)[nH]1 [SAV-7549]
CPE H3N2 reduction (%) ([1]; activity conc 50 (μM)): 65.5 −2.4 8.8%

COc1ccc(-c2sc3nc(N)[nH]c(=O)c3c2C)cc1 [SAV-7575]
CPE H3N2 reduction (%) ([1]; activity conc 20): 35.9 9.02 4%

Cc1c(-c2ccc(Cl)cc2)sc2nc(N)[nH]c(=O)c12 [SAV-7579]
CPE H3N2 reduction (%) ([1]; activity conc 20): 21.4 11.3 0.27%

Cc1c(-c2cccc(Cl)c2)sc2nc(N)[nH]c(=O)c12 [SAV-7580]
Biacore Binding (RU) [2]: 21.2 89.8 11 8.9 RU

Cc1c(-c2cccc(C(F)(F)F)c2)sc2nc(N)[nH]c(=O)c12 [SAV-7581]
CPE H3N2 reduction (%) ([1]; activity conc 50 (μM)): 87.8%

Cc1c(-c2ccccc2)sc2nc(NCCCO)[nH]c(=O)c12 [SAV-7582]
CPE H3N2 reduction (%) ([1]; activity conc 50 (μM)): 102.9 4.2 53.1%

Cc1c(-c2ccccc2)sc2nc(NCCN(C)C)[nH]c(=O)c12 [SAV-7583]
Biacore Binding (RU) [2]: 77.8 4.8 66 RU
Kd [2]: 66 µM

Cc1ccc(-c2sc3nc(N)[nH]c(=O)c3c2C)cc1 [SAV-7585]
CPE H3N2 reduction (%) ([1]; activity conc 2.5): 28.9%

Cc1c(-c2ccncc2)sc2nc(N)[nH]c(=O)c12 [SAV-7586]
CPE H3N2 reduction (%) ([1]; activity conc 15): 81.2%

Cc1c(-c2cccnc2)sc2nc(N)[nH]c(=O)c12 [SAV-7589]
CPE H3N2 reduction (%) ([1]; activity conc 50 (μM)): 63.1%

Cc1c(-c2cccc(C#N)c2)sc2nc(N)[nH]c(=O)c12 [SAV-7594]
CPE H3N2 reduction (%) ([1]; activity conc 5): 14.5%

Cc1c(-c2ccccc2Cl)sc2nc(N)[nH]c(=O)c12 [SAV-7596]
Biacore Binding (RU) [2]: 11 29.6 13.6 RU
Kd [2]: 11 µM

Cc1c(-c2ccccc2F)sc2nc(N)[nH]c(=O)c12 [SAV-7598]
CPE H3N2 reduction (%) ([1]; activity conc 2): 21.3 3.7 11.4%

Cc1c(-c2ccc(F)cc2)sc2nc(N)[nH]c(=O)c12 [SAV-7601]
CPE H3N2 reduction (%) ([1]; activity conc 50 (μM)): 69.2 1.1 44.3%

Cc1c(-c2ccc(Cl)c(C#N)c2)sc2nc(N)[nH]c(=O)c12 [SAV-7602]
CPE H3N2 reduction (%) ([1]; activity conc 20): 67.9 1.7 35.1%

Cc1c(-c2cnn(C)c2)sc2nc(N)[nH]c(=O)c12 [SAV-7603]
Kd [2]: 4.2 µM

CC(c1ccccc1)c1cc2c(=O)[nH]c(N)nc2s1 (stereo not drawn) [SAV-7604]
CPE H3N2 reduction (%) ([1]; activity conc 20): −4.7 6.4%

Cc1c(-c2cccc(F)c2)sc2nc(N)[nH]c(=O)c12 [SAV-7606]
Kd [2]: 6 µM

Cc1c(-c2ccc(F)cc2F)sc2nc(N)[nH]c(=O)c12 [SAV-7610]
CPE H3N2 reduction (%) ([1]; activity conc 2): −1.6%

Cc1c(C2=CCNCC2)sc2nc(N)[nH]c(=O)c12 [SAV-7614]
CPE H3N2 reduction (%) ([1]; activity conc 50 (μM)): 190 10.6%

Cc1c(-c2cc(C#N)ccc2F)sc2nc(N)[nH]c(=O)c12 [SAV-7615]
CPE H3N2 reduction (%) ([1]; activity conc 20): 59.2%

Cc1c(-c2cccc(Cl)c2F)sc2nc(N)[nH]c(=O)c12 [SAV-7616]
CPE H3N2 reduction (%) ([1]; activity conc 10): 68.7%

Cc1c(-c2cc(C#N)ccc2Cl)sc2nc(N)[nH]c(=O)c12 [SAV-7617]
CPE H3N2 reduction (%) ([1]; activity conc 2): 2 5.1%

Cc1c(-c2ccc(Cl)cc2F)sc2nc(N)[nH]c(=O)c12 [SAV-7618]
CPE H3N2 reduction (%) ([1]; activity conc 50 (μM)): 77.4%

Cc1cc(-c2sc3nc(N)[nH]c(=O)c3c2C)ccc1Cl [SAV-7620]
CPE H3N2 reduction (%) ([1]; activity conc 50 (μM)): 57.8%

Cc1c(-c2ccc(F)nc2F)sc2nc(N)[nH]c(=O)c12 [SAV-7621]
IC50 ([1]; Influenza A virus, H3N2, MDCK, read-out: CPE H3N2 IC50 [μM]): 70 µM
CPE H3N2 reduction (%) ([1]; activity conc 25): 14.3%

Cc1c(-c2ccc(Cl)c(C(F)(F)F)c2)sc2nc(N)[nH]c(=O)c12 [SAV-7623]
CPE H3N2 reduction (%) ([1]; activity conc 5): 1.9%

Cc1c(-c2ccc(Cl)c(C(=O)N(C)C)c2)sc2nc(N)[nH]c(=O)c12 [SAV-7626]
CPE H3N2 reduction (%) ([1]; activity conc 25): 6.4 −4.6%

Cc1c(-c2cccc(C#N)c2F)sc2nc(N)[nH]c(=O)c12 [SAV-7627]
CPE H3N2 reduction (%) ([1]; activity conc 50 (μM)): 71.2%

Cc1c(-c2ccc(F)c(C#N)c2F)sc2nc(N)[nH]c(=O)c12 [SAV-7628]
CPE H3N2 reduction (%) ([1]; activity conc 50 (μM)): 84.3%

Cc1c(-c2cccc(CN(C)C)c2)sc2nc(N)[nH]c(=O)c12 [SAV-7629]
CPE H3N2 reduction (%) ([1]; activity conc 50 (μM)): 38.3%

Nc1nc2sc(-c3ccccc3)c(Br)c2c(=O)[nH]1 [SAV-7631]
Kd [2]: 0.86 µM

Cc1c(-c2ccc(Cl)nc2)sc2nc(N)[nH]c(=O)c12 [SAV-7632]
CPE H3N2 reduction (%) ([1]; activity conc 50 (μM)): 0.75 53%

Cc1c(-c2ccnc(Cl)c2F)sc2nc(N)[nH]c(=O)c12 [SAV-7633]
CPE H3N2 reduction (%) ([1]; activity conc 50 (μM)): 63.1%

Cc1c(-c2c(F)ccc(Cl)c2F)sc2nc(N)[nH]c(=O)c12 [SAV-7637]
CPE H3N2 reduction (%) ([1]; activity conc 5): 1.5%

Cc1c(-c2ccccc2)sc2nc(Nc3ccccc3)[nH]c(=O)c12 [SAV-7638]
CPE H3N2 reduction (%) ([1]; activity conc 5): 8.7%

Cc1c(-c2ccccc2)sc2nc(NC3CCCCC3)[nH]c(=O)c12 [SAV-7640]
CPE H3N2 reduction (%) ([1]; activity conc 5): −3.2%

O=C(NO)c1cc(NS(=O)(=O)Cc2ccccc2)ccn1 [drawing 243]
CPE H3N2 reduction (%) ([1]; activity conc 50 (μM)): 5.1%
